Data taken from patent US6534063B1, “Methods for treating pervasive development disorders” (priority 1999, dated 2003).
No end group written: not given here.

What was measured:
fecal chymotrypsin level = test: Fecal Chymotrypsin Test after secretin infusion, 16 autistic children (Experiment 1); type: in vivo; conditions: each of 16 autistic children; approximately one week after first secretin infusion, 1 U/kg IV; compared with pre-secretin levels
Protocol: (§1) In this experiment, 16 children diagnosed as having autism were administered the following Fecal Chymotrypsin Test in accordance with an embodiment of the invention. First, approximately 2 grams of stool were collected from each child and placed in a sterile container (although it is to be understood that any quantity of stool may be collected, as 2 grams of stool is not a required amount). Each stool sample was then analyzed using, e.g., an enzymatic photospectrometry analysis as is known by those skilled in the art, to determine the level of fecal chymotrypsin in the stool. Although the enzymatic photospectrophotometry process is preferred, any suitable conventional method may be used for measuring the fecal chymotrypsin levels. The measured chymotrypsin levels of the 16 autistic children are illustrated in FIG. 13.
After determining the chymotrypsin levels of the stools, each of these levels were compared with threshold chymotrypsin levels to determine if the child was likely to benefit from secretin administration. By way of example, with the fecal chymotrypsin tests of the stool samples being performed at 30° C., normal levels of chymotrypsin are deemed to lie above 8.4 U/gram, whereas pathologically abnormal levels are deemed to lie below 4.2 U/gram. […]

[1] = tested on: children diagnosed as having autism; test: CARS (Childhood Autism Rating Scale) test pre- and post-secretin (Experiment 1); type: in vivo; conditions: 16 autistic children
Protocol: Upon determining that a given child was likely to benefit from secretin administration based on the results of the fecal chymotrypsin test, the child was administered a CARS (Childhood Autism Rating Scale) test prior to being scheduled for secretin infusion.
For each of the 16 autistic children tested, a preferred secretin infusion process according to the present invention was performed involving the administering of 1 U/kg of body weight of Secretin-Ferring for a period of nine months at intervals of approximately 6 weeks. In addition, another CARS test was administered to each of the 16 autistic children 3 weeks post secretin administration to determine if their autism had changed post infusion.
A preferred secretin infusion process includes the initial step of prepping an arm of the candidate child with an IV injection of saline. A test dose of 1 U of Secretin-Ferring is then administered to the child. Approximately one minute after infusion, the child is examined for signs of allergic reaction including rash, increased heart rate, and increase of blood pressure. […] Subsequently, each child receives a 1 U/kg of body weight infusion of Secretin-Ferring approximately every 6 weeks for 9 months. It is to be understood that any commercially available form of secretin may be used.

[2] = tested on: fecal chymotrypsin (FC) levels; test: Weekly fecal chymotrypsin test during 6 months of secretin, 37 autistic children (Experiment 2); type: in vivo; conditions: 6 months post-secretin administration; of 37 children, all abnormal pre-secretin
Protocol: as §1
After determining the chymotrypsin levels of the stools, each of these levels were compared with threshold chymotrypsin levels to determine if the child was likely to benefit from secretin administration. By way of example, with the fecal chymotrypsin tests of the stool samples being performed at 30° C., normal levels of chymotrypsin are deemed to lie above 8.4 U/gram, whereas pathologically abnormal levels are deemed to lie below 4.2 U/gram. In addition, chymotrypsin levels between 8.4 U/gram and 4.2 U/gram are considered equivocal, and further testing of the individual's fecal chymotrypsin levels over a period of time should be performed.
A preferred secretin infusion process includes the initial step of prepping an arm of the candidate child with an IV injection of saline. A test dose of 1 U of Secretin-Ferring is then administered to the child. […]
In this experiment, 37 autistic children with abnormal fecal chymotrypsin levels were administered secretin over the course of 6 months using the secretin infusion process described above. Their fecal chymotrypsin (FC) levels were measured weekly using the fecal chymotrypsin test described above.

[3] = tested on: children diagnosed with Autism; conditions: secretin given as diagnostic procedure during upper gastrointestinal endoscopy; cited from earlier work

In the case of “secretin (HSDGTFTSELSRLRDSARLQRLLQGLV-NH2; ends and bridges not checked; UniProt P63298 33-59, looked up) [gastrointestinal peptide hormone]”, the “fecal chymotrypsin level post-secretin administration” value (fecal chymotrypsin level) is reported as “increased”, the “CARS component scores (all except fear)” value ([1]; 3 weeks post infusion) is reported as “demonstrated improvement” and the “CARS fear component score” value ([1]; 3 weeks post infusion) is reported as “increased”. For the same substance, the “CARS scores (overall)” value ([1]; approximately 3 weeks after first secretin administration vs pre-secretin) was “overall decrease”, the “# Autistic Children w/Abnormal FC levels” value [2] was 1 and the “# Autistic Children w/Equivocal FC levels” value [2] was 2. For the same substance, the “# Autistic Children w/normal FC levels” value [2] was 34 and the “symptoms associated with Autism” value [3] was “ameliorating the symptoms associated with Autism”.
